# Measured values published in US4132723A, “Substituted phenyl- or cyclohex-1-en-1-yl-3,7-demethyl-nona-2,4,6-trienoic acids and derivatives thereof” (Hoffmann-La Roche Inc., priority 1973, dated 1979).
# How the values were obtained:
# [1] = acute toxicity in mice after intraperitoneal administration in rape oil; conditions: mouse, in vivo, ip
# [2] = system: papillomas; test: papilloma test (tumors induced with dimethyl-benzanthracene and croton oil); assay type: in vivo; conditions: mice, intraperitoneal, 400 mg/kg/week, within 2 weeks
# Description: The polyene compounds of formula I are useful in the topical and systemic prophylaxis and treatment of benign and malignant neoplasias and premalignant lesions. The tumor-inhibiting activity of the polyene compounds of the invention is significant. […] The diameter of such papillomas in mice decreased by 54% within 2 weeks upon the intraperitoneal administration of 3,7-dimethyl-9-(4-methoxy-2,3,6-trimethyl-phenyl)-nona-2,4,6-trien-1-oic acid at a dosage of 400 mg/kg/week.
smiles,measurement,setting,value
"COc1cc(C)c(CC/C(C)=C/C=C/C(C)=C/C(=O)O)c(C)c1C [3,7-dimethyl-9-(4-methoxy-2,3,6-trimethyl-phenyl)-nona-2,4,6-trien-1-oic acid]",LD50,[1],1400 mg/kg
same,LD50 at 24 h,[1],> 4000 mg/kg
same,LD50 at 240 h,[1],1400 mg/kg
same,LD50 at 480 h,[1],1400 mg/kg
same,decrease in diameter of papillomas,[2],54%
